Assay results published in PubChem BioAssay (NCI).
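These data come from cells grown in 96-well plates and exposed to compound for 48 hours at five concentrations. Here, GI50 denotes the concentration required for 50% inhibition of growth. TGI: total growth inhibition.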

Key:
Experiment in all cases: NCI anticancer screen, dose series, 48 h
[1] = test system: UACC-257 melanoma
[2] = test system: BT-549 breast
[3] = test system: MDA-MB-231 breast
[4] = test system: SN12C renal
[5] = test system: OVCAR-4 ovarian
[6] = test system: SR leukemia
[7] = test system: COLO 205 colon
[8] = test system: RPMI-8226 leukemia
[9] = test system: SK-MEL-28 melanoma
[10] = test system: HCT-15 colon
[11] = test system: OVCAR-5 ovarian
[12] = test system: SK-MEL-5 melanoma
[13] = test system: SK-OV-3 ovarian
[14] = test system: MOLT-4 leukemia
[15] = test system: M14 melanoma
[16] = test system: RXF 393 renal
[17] = test system: LOX IMVI melanoma
[18] = test system: U251 CNS
[19] = test system: NCI-H522 lung
[20] = test system: NCI/ADR-RES ovarian
[21] = test system: HOP-92 NSCLC
[22] = test system: OVCAR-8 ovarian
[23] = test system: IGROV1 ovarian
[24] = test system: SNB-75 CNS
[25] = test system: MDA-MB-435
[26] = test system: NCI-H226 lung
[27] = test system: NCI-H460 lung
[28] = test system: MCF7 breast
[29] = test system: A498 renal
[30] = test system: PC-3 prostate
[31] = test system: SF-268 CNS
[32] = test system: HOP-62 NSCLC
[33] = test system: SNB-19 CNS
[34] = test system: T-47D breast
[35] = test system: A549 NSCLC
[36] = test system: HL-60(TB) leukemia
[37] = test system: NCI-H23 lung
[38] = test system: ACHN renal
[39] = test system: SF-295 CNS
[40] = test system: DU-145 prostate
[41] = test system: 786-0 renal
[42] = test system: HCC-2998 colon
[43] = test system: SW-620 colon
[44] = test system: KM12 colon
[45] = test system: UO-31 renal
[46] = test system: HT29 colon
[47] = test system: CAKI-1 renal
[48] = test system: CCRF-CEM leukemia
[49] = test system: HCT-116 colon
[50] = test system: TK-10 renal
[51] = test system: HS 578T breast
[52] = test system: K-562 leukemia
[53] = test system: UACC-62 melanoma
[54] = test system: MALME-3M melanoma
[55] = test system: SF-539 CNS
[56] = test system: OVCAR-3 ovarian
[57] = test system: EKVX NSCLC

COC1=CC(c2ccc[nH]2)=N/C1=C\c1[nH]c(C)c(C(=O)CCCCC(=O)NCc2ccccc2)c1C
GI50 [1]: 18.6 µM
TGI [1]: 38.5 µM
GI50 [2]: 2100 nM
TGI [2]: 7.12 µM
GI50 [3]: 1610 nM
TGI [3]: 7.56 µM
GI50 [4]: 3.82 µM
TGI [4]: 18.4 µM
GI50 [5]: 6.31 µM
TGI [5]: 23.4 µM
GI50 [6]: 1140 nM
TGI [6]: 3.3 µM
GI50 [7]: 2370 nM
GI50 [8]: 2560 nM
TGI [8]: 6.52 µM
GI50 [9]: 2070 nM
TGI [9]: 4.64 µM
GI50 [10]: 845 nM
TGI [10]: 2250 nM
GI50 [11]: 7.18 µM
TGI [11]: 21.3 µM
GI50 [12]: 10.8 µM
TGI [12]: 23.4 µM
GI50 [13]: 14.8 µM
TGI [13]: 31.1 µM
GI50 [14]: 1090 nM
TGI [14]: 3.09 µM
GI50 [15]: 2680 nM
TGI [15]: 7.36 µM
GI50 [16]: 1900 nM
TGI [16]: 4.58 µM
GI50 [17]: 1430 nM
TGI [17]: 2770 nM
GI50 [18]: 1430 nM
TGI [18]: 2950 nM
GI50 [19]: 1950 nM
TGI [19]: 6.09 µM
GI50 [20]: 2170 nM
TGI [20]: 5.36 µM
GI50 [21]: 1650 nM
TGI [21]: 4.63 µM
GI50 [22]: 5.85 µM
TGI [22]: 23.3 µM
GI50 [23]: 3.36 µM
TGI [23]: 14.7 µM
GI50 [24]: 3.72 µM
TGI [24]: 15.1 µM
GI50 [25]: 1610 nM
TGI [25]: 3.72 µM
GI50 [26]: 2730 nM
TGI [26]: 10.9 µM
GI50 [27]: 1990 nM
TGI [27]: 5.34 µM
GI50 [28]: 1600 nM
TGI [28]: 3.44 µM
GI50 [29]: 15.5 µM
TGI [29]: 35.3 µM
GI50 [30]: 1570 nM
TGI [30]: 3.99 µM
GI50 [31]: 1820 nM
TGI [31]: 6.04 µM
GI50 [32]: 2870 nM
TGI [32]: 10.2 µM
GI50 [33]: 8.76 µM
TGI [33]: 24 µM
GI50 [34]: 2340 nM
TGI [34]: 7.23 µM
GI50 [35]: 3.56 µM
TGI [35]: 16.9 µM
GI50 [36]: 2200 nM
TGI [36]: 7.33 µM
GI50 [37]: 2470 nM
TGI [37]: 11 µM
GI50 [38]: 2490 nM
TGI [38]: 8.11 µM
GI50 [39]: 1870 nM
TGI [39]: 7.23 µM
GI50 [40]: 1640 nM
TGI [40]: 3.53 µM
GI50 [41]: 2400 nM
TGI [41]: 6.69 µM
GI50 [42]: 3.16 µM
TGI [42]: 12.2 µM
GI50 [43]: 1060 nM
TGI [43]: 2580 nM
GI50 [44]: 1380 nM
TGI [44]: 3.02 µM
GI50 [45]: 2260 nM
TGI [45]: 8.81 µM
GI50 [46]: 723 nM
TGI [46]: 5.67 µM
GI50 [47]: 2540 nM
TGI [47]: 13.4 µM
GI50 [48]: 673 nM
TGI [48]: 6.98 µM
GI50 [49]: 1510 nM
TGI [49]: 2830 nM
GI50 [50]: 2150 nM
TGI [50]: 4.63 µM
GI50 [51]: 1980 nM
TGI [51]: 4.43 µM
GI50 [52]: 1730 nM
TGI [52]: 4.72 µM
GI50 [53]: 8.85 µM
TGI [53]: 22.8 µM
GI50 [54]: 2560 nM
TGI [54]: 5.57 µM
GI50 [55]: 4.66 µM
TGI [55]: 15.8 µM
GI50 [56]: 1430 nM
TGI [56]: 2890 nM
GI50 [57]: 4.2 µM
TGI [57]: 18.1 µM
